“And” between values parts separate entries of the source, which are not always exact repeats. Identical values can stand only once.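 Step 1: Grow cells in 96-well plates. Step 2: Expose to compound for 48 hours at 5 concentrations. Step 3: Interpolate endpoints linearly; if unreached, use highest concentration. Here, GI50 denotes the concentration required for 50% inhibition of growth. TGI: total growth inhibition.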
Key:
Test in all cases: NCI-60 cell line screen, 48 h
CAKI-1 renal = test system: CAKI-1 renal
HCT-15 colon = test system: HCT-15 colon
HOP-62 NSCLC = test system: HOP-62 NSCLC
HS 578T breast = test system: HS 578T breast
IGROV1 ovarian = test system: IGROV1 ovarian
K-562 leukemia = test system: K-562 leukemia
MDA-MB-231 breast = test system: MDA-MB-231 breast
MOLT-4 leukemia = test system: MOLT-4 leukemia
SK-MEL-2 melanoma = test system: SK-MEL-2 melanoma
SK-MEL-5 melanoma = test system: SK-MEL-5 melanoma

Structure (SMILES) | TGI (CAKI-1 renal) | GI50 (HCT-15 colon) | GI50 (HOP-62 NSCLC) | TGI (HOP-62 NSCLC) | TGI (HS 578T breast) | GI50 (IGROV1 ovarian) | TGI (IGROV1 ovarian) | GI50 (K-562 leukemia) | TGI (K-562 leukemia) | TGI (MDA-MB-231 breast) | GI50 (MOLT-4 leukemia) | TGI (MOLT-4 leukemia) | TGI (SK-MEL-2 melanoma) | GI50 (SK-MEL-5 melanoma) | TGI (SK-MEL-5 melanoma) | TGI (HCT-15 colon) | GI50 (CAKI-1 renal) | GI50 (HS 578T breast) | GI50 (MDA-MB-231 breast) | GI50 (SK-MEL-2 melanoma)
CCCCNCCCNCCCNC(=O)c1csc(-c2csc(CCNC(=O)C(NC(=O)C(C)C(O)C(C)NC(=O)C(NC(=O)c3nc(C(CC(N)=O)NCC(N)C(N)=O)nc(N)c3C)C(OC3OC(CO)C(O)C(O)C3OC3OC(CO)C(O)C(OC(N)=O)C3O)c3cnc[nH]3)C(C)O)n2)n1 (stereo not drawn) | 50 µM and 17 µM | 2.12 µM | 0.109 µM | 8.65 µM | 50 µM | 20.9 µM | 50 µM and > 84 µM | 19.6 µM | 50 µM and > 100 µM | 50 µM | 1.22 µM | 50 µM and > 27.1 µM | 17.3 µM | 3.14 µM | 50 µM and 11.6 µM |  |  |  |  | 
COc1cc2c3c(n(C)c(=O)c2cc1OC)-c1cc2c(cc1C3=O)OCO2 | > 53.1 µM |  |  | > 55 µM | > 100 µM |  | 40.9 µM |  | > 92.2 µM | > 100 µM |  | 54.7 µM | > 72.2 µM |  | > 44.8 µM | > 100 µM |  |  |  | 
C[C@H](CCOc1cccc(CC(=O)O)c1)N(Cc1cccc(C(F)(F)F)c1Cl)CC(c1ccccc1)c1ccccc1 | 18.2 µM | 3.25 µM | 6.26 µM | 26.4 µM | 20.7 µM | 5.77 µM | 19.4 µM | 4.9 µM | 52.9 µM | 25.1 µM | 4.95 µM | 23.1 µM | 28.2 µM | 3.95 µM | 14.6 µM | 12.3 µM | 5.79 µM | 3.79 µM | 10.5 µM | 5.84 µM
COC(=O)C1=CN(CC2=CC(=O)C(C)=CC2=O)C=C(C(=O)OC)C1c1ccccc1OC | 37.9 µM | 18.9 µM | 23.5 µM | > 51 µM | 77.8 µM | 22.3 µM | 57.3 µM | 0.495 µM | 14.9 µM | 28 µM | 5.61 µM | 14.2 µM | > 100 µM | 14.2 µM | 30.4 µM | 39.2 µM | 16.7 µM | 25.9 µM | 9.66 µM | 45.2 µM
COc1c(C)c(OCC=C(C)C)cc(CO)c1CO | > 100 µM |  |  | > 100 µM | > 100 µM |  | > 100 µM |  | > 100 µM | > 100 µM |  | > 100 µM | > 100 µM |  | 59.1 µM | > 100 µM |  |  |  | 
COc1ccc(CNc2c3ccccc3nc3ccccc23)cc1F | 8.35 µM | 2.45 µM | 4.2 µM | 20.5 µM | 11.5 µM | 2.82 µM | 10.4 µM | 2.94 µM | 12.3 µM | 10.7 µM | 3.28 µM | 14.6 µM | 13.4 µM | 3.21 µM | 10.6 µM | 7.8 µM | 2.26 µM | 3.06 µM | 3.16 µM | 3.45 µM
COc1ccc(-c2cc(=O)oc3c4c(ccc23)OCN(Cc2ccc(F)cc2)C4)cc1 | 44.3 µM | 15.4 µM | 14.4 µM | 30.8 µM | 47.9 µM | 20.5 µM | 51.5 µM | 19.3 µM | 68.4 µM | 40.2 µM | 19.4 µM | 58.3 µM | 31.3 µM | 12.7 µM | 25.4 µM | 31.8 µM | 14.7 µM | 15.8 µM | 18.5 µM | 16.3 µM
NC(=S)N/N=C/c1ncccc1O | > 56.7 µM and 63.9 µM | 2.67 µM | 2.6 µM | 11.1 µM and 16.7 µM | 835 µM | 2.88 µM | > 96.7 µM and 380 µM | 2.92 µM | > 1000 µM | > 1000 µM | 1.76 µM | 33.2 µM and 42.7 µM | > 40 µM and 135 µM | 2.04 µM and 1.26 µM | 35.5 µM and 67.2 µM | > 439 µM | 2.59 µM |  |  | 21.3 µM
Cc1cccc(NC2=C(Cl)C(=O)c3nc(C)ccc3C2=O)c1 | 2.26 µM | 0.431 µM | 0.529 µM | 2.88 µM | 4.58 µM | 1.18 µM | 2.6 µM | 0.45 µM | > 100 µM | 2.42 µM | 2.2 µM | > 100 µM | 4.19 µM | 1.66 µM | 3.03 µM | 2.09 µM | 1.06 µM | 1.68 µM | 0.904 µM | 1.93 µM

Reference: PubChem BioAssay (NCI)
